From patent US20260083129A1, “PYRAZOLE AMIDE INSECTICIDES” (FMC CORPORATION, priority 2022, published 2026)

System: cotton melon aphid (Aphis gossypii (Glover))
Test: Test C: control of cotton melon aphid on sprayed okra plant
Assay type: in vivo
Details: sprayed at 250 ppm; assessed after 6 days
Procedure: Test compounds were formulated using a solution containing 10% acetone, 90% water and 300 ppm Activator 90@non-ionic surfactant (Loveland Products, Loveland, Colorado, USA). The formulated compounds were applied in 1 mL of liquid through an atomized nozzle positioned 1.27 cm (0.5 inches) above the top of each test unit. Test compounds were sprayed at the rates indicated, and each test was replicated three times.
For evaluating control of cotton melon aphid (Aphis gossypii (Glover)) through contact and/or systemic means, the test unit consisted of a small open container with a 5-day-old okra plant inside. This was pre-infested with 30-40 insects on a piece of leaf according to the cut-leaf method, and the soil of the test unit was covered with a layer of sand.
Test compounds were formulated and sprayed at 250, 50, 10, and 2 ppm with three replications as described above. After spraying, the test units were maintained in a growth chamber for 6 days at 19° C. and 70% relative humidity. Each test unit was then visually assessed for insect mortality.

Structure (SMILES): CC(c1c([N+](=O)[O-])cnn1-c1ncccn1)N(C)C(=O)c1cc(C(F)(F)F)cc(C(F)(F)F)c1 (stereo not shown) [Compound 96]
- mortality: at least 80%
